Measurements published in patent US9187490B2, “Dimeric IAP inhibitors” (TetraLogic Pharmaceuticals Corporation, priority 2005, dated 2015).
Read-outs that look alike come from different tables or passages of the source.

How the values were obtained:
XIAP-BIR3 = target: T1, XIAP-BIR3 (Homo sapiens, UniProt P98170); assay: XIAP BIR-3 fluorescence polarization binding assay; conditions: read-out: KD Range
T1 construct: 40 nM of XIAP-BIR3 for 15 min at RT
Procedure: Following incubation, the polarization values (mP) were measured on a Victor^2V using a 485 nm excitation filter and a 520 nm emission filter. IC50 values were determined from the plot using nonlinear least-squares analysis using GraphPad Prism.

SK-OV-3 cells = assay: 72 hour MTT cell survival assay, SK-OV-3; assay type: cell-based; conditions: SK-OV-3 ovarian cancer cell line, FIG. 3
Procedure: (§1) A 72 hour MTT assay, as previously described by Hansen, M. B., Nielsen, S. E., and Berg, K. ((1989) J. Immunol. Methods 119, 203-210) and incorporated herein by reference in its entirety, was used to differentiate between a specific versus non-specific effect on cell killing by Smac mimetics. Briefly, SK-OV-3 cells were seeded in 96-well plates in McCoy's medium containing 10% fetal bovine serum […] (20,000 per well) and incubated overnight at 37 C. […] 50 microliters of 5 mg/mL MTT reagent was then added to each well and the plates were incubated at 37° C. for 3 hours. At the end of the incubation period, 50 microliters of DMSO was added to each well to dissolve cells and the optical density (OD) of the wells was measured using a microplate reader (Victor^2 1420, Wallac, Finland) at 535 nm. Cell survival (CS) was calculated by the following equation CS=(OD treated well/mean OD control wells)×100%
The EC50, defined as the drug concentration that results in 50% CS, was derived by calculating the point where the dose-response curve crosses the 50% CS point using GraphPad Prism.

MRC-5 cells = assay: 72 hour MTT assay, normal cell control MRC-5; assay type: cell-based; conditions: MRC-5 normal diploid cell line, FIG. 3
Procedure: as §1
Smac mimetic Entry 116 was tested using an ovarian cancer cell line, SK-OV-3, and MRC-5 cells were used as a normal cell control.

MDA MB-231 cells = assay: Apoptosis induction, Annexin V/Propidium Iodide staining; assay type: cell-based
Procedure: To show the ability of Smac mimetics to induce apoptosis, Annexin V-fluorescein isothiocyanate staining was performed. […] Cells were then pelleted and resuspended in assay buffer (supplied by manufacturer). Annexin V and propidium iodide were added to the cell preparations and incubated for 1 hour in the dark at room temperature. Following the incubation additional buffer (200 μl) was then added to each tube, and the samples were analyzed immediately by flow cytometry. In the presence of Smac mimetics apoptosis was strongly promoted, as assessed by annexin/PI staining and analyzed by flow cytometry. The amplification in the number of apoptotic cells (Annexin V positive/propidium iodide negative—lower right quadrant) by IAP antagonists as compared to control was dose dependent and due to the induction of apoptosis and not via increasing the proportion of necrotic cells.

[1] = Half life after single intravenous dose in rat; conditions: in vivo, single IV dose 1 mg/kg, FIG. 2, read-out: terminal elimination half life (converted)
Procedure: The IV dose for each Smac mimetic was 1 mg/kg.

OVCAR-3 cells = assay: Cytotoxicity synergy matrix (MacSynergy II) with paclitaxel, cisplatin, carboplatin; assay type: cell-based
Procedure: To further assess potential drug-drug interactions a matrix of the permutations of two-fold serial dilutions of each drug and a Snac mimetic were tested as well as the activity of each compound alone using a program called MacSynergy II (Prichard, M. N., K. R. Aseltine, and C. Shipman, Jr. 1993. MacSynergy II. User's manual. Univ. of Michigan, Ann Arbor). The synergy with paclitaxel and the Smac peptidomimetic Entry 122 in OVCAR3 cells was tested. The highest amount of synergy detected is 10-20% which indicates greater cell death than would be expected by adding together the cytotoxicity of either compound alone.
Paclitaxel the dosage ranged from about 0.0 to about 500.0 nM. For Entry 122, the dosage range was about 125.0 to about 8000.0 nM. The total synergistic volume was about 170.
The synergy with cisplatin and the Smac peptidomimetics in OVCAR-3 cells was tested The highest amount of synergy is 40-50% more cell death than would be expected by adding together the cytotoxicity of each compound alone. […] For cisplatin the dosage range was about 0.0 to about 166,500.0 nM. For Entry 122, the dosage range was about 500.0 to about 32,000.0 nM. The total synergistic volume was about 434. Similar tests were performed with the combination of carboplatin and Smac mimetics. Synergy between a Smac peptidomimetic, Entry 122, and carboplatin.

[2] = 5 nM AbuRPF-K(5-Fam)-NH2, 40 nM XIAP-BIR3, 15 min RT, pH 7.5

T1 sequence (P98170 241-356 limits assumed): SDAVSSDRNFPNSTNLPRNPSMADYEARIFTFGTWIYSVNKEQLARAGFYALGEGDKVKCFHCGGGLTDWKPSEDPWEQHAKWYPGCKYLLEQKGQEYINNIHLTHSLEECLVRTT

Molecule `CNC(C)C(=O)NC(C(=O)N1CC(O)CC1Cc1c(-c2[nH]c3cc(F)ccc3c2CC2CC(O)CN2C(=O)C(NC(=O)C(C)NC)C(C)OC(C)(C)C)[nH]c2cc(F)ccc12)C(C)OC(C)(C)C` (stereo not shown) [Entry 89] has a Kd (XIAP-BIR3; Example 4 series) of 100 to 1000 nM.

With `CNC(C)C(=O)NC(C(=O)N1CC(O)CC1Cc1c(-c2[nH]c3cc(F)ccc3c2CC2CC(O)CN2C(=O)C(NC(=O)C(C)NC)C(C)O)[nH]c2cc(F)ccc12)C(C)O` (stereo not shown) [Entry 90] the Kd (XIAP-BIR3; Example 4 series) was < 100 nM.

In the case of `CN[C@H](C)C(=O)N[C@H](C(=O)N1CCC[C@H]1Cc1c(-c2[nH]c3cc(F)ccc3c2C[C@@H]2CCCN2C(=O)[C@@H](NC(=O)[C@@H](C)NC)C(C)C)[nH]c2cc(F)ccc12)C(C)C` [Entry 91], the Kd (XIAP-BIR3; Example 4 series) is reported as 100 to 1000 nM.

With `CNC(C)C(=O)NC1CC=CCC(NC(=O)C(C)NC)C(=O)N2CCCC2Cc2c3n(c4cc(F)ccc24)CCn2c-3c(c3ccc(F)cc32)CC2CCCN2C1=O` (stereo not shown) [Entry 95] the Kd (XIAP-BIR3; [2]) was < 100 nM.

In the case of `CN[C@@H](C)C(=O)NC1CCCC[C@H](NC(=O)[C@H](C)NC)C(=O)N2CCC[C@H]2Cc2c3n(c4ccc(F)cc24)CCn2c-3c(c3cc(F)ccc32)C[C@@H]2CCCN2C1=O` (stereo partly shown) [Entry 97], the Kd (XIAP-BIR3; [2]) is reported as < 100 nM.

In the case of `CN[C@@H](C)C(=O)N[C@H](C(=O)N1CCC[C@H]1Cc1c(-c2[nH]c3ccccc3c2C[C@@H]2CCCN2C(=O)[C@@H](NC(=O)[C@H](C)NC)[C@@H](C)O)[nH]c2ccccc12)[C@@H](C)O` [Entry 105], the Kd (XIAP-BIR3; Example 7 series) is reported as < 100 nM.

With `CN[C@@H](C)C(=O)N[C@H](C(=O)N1C[C@@H](O)C[C@H]1Cc1c(-c2[nH]c3cc(F)ccc3c2C[C@@H]2C[C@H](O)CN2C(=O)[C@@H](NC(=O)[C@H](C)NC)[C@H](C)OC(C)(C)C)[nH]c2cc(F)ccc12)[C@H](C)OC(C)(C)C` [Entry 114] the Kd (XIAP-BIR3; Example 7 series) was < 100 nM.

In the case of `CN[C@@H](C)C(=O)N[C@H](C(=O)N1C[C@@H](O)C[C@H]1Cc1c(-c2[nH]c3cc(F)ccc3c2C[C@@H]2C[C@H](O)CN2C(=O)[C@@H](NC(=O)[C@H](C)NC)[C@@H](C)OC)[nH]c2cc(F)ccc12)[C@@H](C)OC` [Entry 116], the Kd (XIAP-BIR3; Example 7 series) is reported as < 100 nM, the “more effective at killing tumor cells than negative controls” value (SK-OV-3 cells) is reported as 100,000 × and the “effect on normal (non-tumorigenic) cells” value (MRC-5 cells) is reported as “unaffected”.

In the case of `CN[C@@H](C)C(=O)N[C@H](C(=O)N1CCC[C@H]1Cc1cn(CC#CC#CCn2cc(C[C@@H]3CCCN3C(=O)[C@@H](NC(=O)[C@H](C)NC)C(C)(C)C)c3ccccc32)c2ccccc12)C(C)(C)C` [Entry 119], the Kd (XIAP-BIR3; [2]) is reported as < 100 nM.

For `CN[C@@H](C)C(=O)N[C@H](C(=O)N1CCC[C@H]1Cc1cn(CC#CC#CCn2cc(C[C@@H]3CCCN3C(=O)[C@@H](NC(=O)[C@H](C)NC)C3CCCCC3)c3ccccc32)c2ccccc12)C1CCCCC1` [Entry 120], the Kd (XIAP-BIR3; [2]) was < 100 nM.

With `CN[C@@H](C)C(=O)N[C@H](C(=O)N1CCC[C@H]1Cc1cn(CC#CC#CCn2cc(C[C@@H]3CCCN3C(=O)[C@@H](NC(=O)[C@H](C)NC)C(C)C)c3ccccc32)c2ccccc12)C(C)C` [Entry 121] the Kd (XIAP-BIR3; [2]) was < 100 nM, the “apoptosis induced, agent alone” value (MDA MB-231 cells; MDA MB-231, after 4 hours) was “failed to induce significant apoptosis” and the “increase in apoptotic activity, combination of TRAIL with compound” value (MDA MB-231 cells; MDA MB-231, after 4 hours) was 4 fold. For the same molecule, the “apoptosis, compound alone” value (MDA MB-231 cells; MDA MB-231, without TRAIL) was “approximately 10 % of cell total”.

With `CN[C@@H](C)C(=O)N[C@H](C(=O)N1CCC[C@H]1Cc1cn(CCOCCn2cc(C[C@@H]3CCCN3C(=O)[C@@H](NC(=O)[C@H](C)NC)C3CCCCC3)c3ccccc32)c2ccccc12)C1CCCCC1` [Entry 122] the Kd (XIAP-BIR3; Example 9 series) was < 100 nM, the half-life [1] was ≤ 6 h and the total synergistic volume (OVCAR-3 cells; OVCAR3, paclitaxel 0.0-500.0 nM, compound 125.0-8000.0 nM) was “about 170”. The “highest amount of synergy detected” value (OVCAR-3 cells; OVCAR3, with paclitaxel) was 10-20%, the total synergistic volume (OVCAR-3 cells; OVCAR-3, cisplatin 0.0-166,500.0 nM, compound 500.0-32,000.0 nM) was “about 434” and the “synergy with carboplatin” value (OVCAR-3 cells; OVCAR-3, with carboplatin) was “Synergy”. The “highest amount of synergy, more cell death than expected” value (OVCAR-3 cells; OVCAR-3, with cisplatin) was 40-50%.

For `CN[C@@H](C)C(=O)N[C@H](C(=O)N1CCC[C@H]1Cc1cn(CCOCCn2cc(C[C@@H]3CCCN3C(=O)[C@@H](NC(=O)[C@H](C)NC)C3CCCCC3)c3ccc(F)cc32)c2cc(F)ccc12)C1CCCCC1` [Entry 123], the Kd (XIAP-BIR3; Example 9 series) was < 100 nM and the half-life [1] was ≤ 6 h.

With `CN[C@@H](C)C(=O)N[C@H](C(=O)N1CCC[C@H]1Cc1cn(CCOCCn2cc(C[C@@H]3CCCN3C(=O)[C@@H](NC(=O)[C@H](C)NC)[C@@H](C)O)c3ccc(F)cc32)c2cc(F)ccc12)[C@@H](C)O` [Entry 124] the Kd (XIAP-BIR3; Example 9 series) was < 100 nM.

With `CC[C@H](NC)C(=O)N[C@H](C(=O)N1CCC[C@H]1Cc1cn(CCOCCn2cc(C[C@@H]3CCCN3C(=O)[C@@H](NC(=O)[C@H](CC)NC)[C@@H](C)O)c3cc(F)ccc32)c2ccc(F)cc12)[C@@H](C)O` [Entry 125] the Kd (XIAP-BIR3; Example 9 series) was 100 to 1000 nM.

For `CN[C@@H](C)C(=O)N[C@H](C(=O)N1CCC[C@H]1Cc1cn(CCOCCn2cc(C[C@@H]3CCCN3C(=O)[C@@H](NC(=O)[C@H](C)NC)C3CCCCC3)c3cc(F)ccc32)c2ccc(F)cc12)C1CCCCC1` [Entry 126], the Kd (XIAP-BIR3; Example 9 series) was < 100 nM.

In the case of `CN[C@@H](C)C(=O)N[C@H](C(=O)N1CCC[C@H]1Cc1c(C)n(CCOCCn2c(C)c(C[C@@H]3CCCN3C(=O)[C@@H](NC(=O)[C@H](C)NC)C3CCCCC3)c3cc(F)ccc32)c2ccc(F)cc12)C1CCCCC1` [Entry 127], the Kd (XIAP-BIR3; Example 9 series) is reported as < 100 nM.

With `CN[C@@H](C)C(=O)N[C@H](C(=O)N1CCC[C@H]1Cc1cn(CCOCCn2cc(C[C@@H]3CCCN3C(=O)[C@@H](NC(=O)[C@H](C)N)C3CCCCC3)c3ccccc32)c2ccccc12)C1CCCCC1` [Entry 143] the Kd (XIAP-BIR3; Example 9 series) was < 100 nM.

B1: TRAIL: tumor necrosis factor-related apoptosis-inducing ligand (TRAIL) (protein, UniProt P50591 1-281, looked up)
Tumor necrosis factor ligand …: MAMMEVQGGPSLGQTCVLIVIFTVLLQSLCVAVTYVYFTNELKQMQDKYSKSGIACFLKEDDSYWDPNDEESMNSPCWQVKWQLRQLVRKMILRTSEETISTVQEKQQNISPLVRERGPQRVAAHITGTRGRSNTLSSPNSKNEKALGRKINSWESSRSGHSFLSNLHLRNGELVIHEKGFYYIYSQTYFRFQEEIKENTKNDKQMVQYIYKYTSYPDPILLMKSARNSCWSKDAEYGLYSIYQGGIFELKENDRIFVSVTNEHLIDMDHEASFFGAFLVG
In the case of B1, the “apoptosis induced, agent alone” value (MDA MB-231 cells; MDA MB-231, after 4 hours) is reported as “little, if any”.
